Test results published in patent US20250011300A1, “PIPERAZINYLSULFONYLARYL COMPOUNDS FOR TREATMENT OF BACTERIAL INFECTIONS” (Hoffmann-La Roche Inc., priority 2021, published 2025).
In brackets after ≈: the same amount, converted by molar mass.

Experiments:
[1] = test system: K. pneumonia (ATCC 43816); assay: Minimal Inhibitory Concentration (MIC) assay, K. pneumonia; assay type: cell-based; details: Klebsiella pneumoniae; K. pneumoniae ATCC43816, CAMHB, 20 hours at 35° C.; read-out: MIC K. pneumoniae ATCC43816
Method in brief: (§1)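 Broth microdilution in cation-adjusted Mueller Hinton broth, inoculum 5×10^5 CFU/mL, compounds 2-fold serially diluted from 10 mM DMSO stocks. Plates incubated 20 hours at 35° C in ambient air; MIC (μg/mL) is the lowest concentration preventing visible growth.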

[2] = molecular target: Escherichia coli LpxH (UDP-2,3-diacylglucosamine hydrolase) (Escherichia coli (strain K12), UniProt P43341); assay: 50% Inhibitory Concentration (IC50) to LpxH, UMP/CMP-Glo Glycosyltransferase Assay kit; assay type: biochemical
Sequence of Escherichia coli LpxH (UDP-2,3-diacylglucosamine hydrolase) (P43341 whole entry): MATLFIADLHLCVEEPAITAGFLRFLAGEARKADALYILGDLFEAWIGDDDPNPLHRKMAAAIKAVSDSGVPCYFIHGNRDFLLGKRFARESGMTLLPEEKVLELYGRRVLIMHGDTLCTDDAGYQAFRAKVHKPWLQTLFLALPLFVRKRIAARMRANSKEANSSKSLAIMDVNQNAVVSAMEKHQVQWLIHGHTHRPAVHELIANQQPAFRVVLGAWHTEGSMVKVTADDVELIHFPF
Method in brief: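 LpxH hydrolysis of UDP-2,3-diacylglucosamine to lipid X and UMP; UMP produced is converted to ATP and quantified by luciferase luminescence (UMP/CMP-Glo). Inhibition taken from reduced light output.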

[3] = test system: E. coli (ATCC 25922); assay: Minimal Inhibitory Concentration (MIC) assay, E. coli; assay type: cell-based; details: Escherichia coli, ATCC25922; E. coli ATCC 25922, CAMHB, 20 hours at 35° C.; read-out: MIC E. coli ATCC 25922
Method in brief: as §1

Compound	MIC [1] [µg/mL]	IC50 [2] [nM]	MIC [3] [µg/mL]
O=C1CC(NCCO)CN1c1ccc(S(=O)(=O)N2CCN(c3cc(C(F)(F)F)cc(Cl)n3)CC2)cc1 (stereo not drawn) [Example 46, 1-[4-[4-[6-Chloro-4-(trifluoromethyl)-2-pyridyl]piperazin-1-yl]sulfonylphenyl]-4-(2-hydroxyethylamino)pyrrolidin-2-one]	3.65 (≈ 6.66 µM)	9.12	1.83 (≈ 3.34 µM)
O=C1CC(N2C[C@@H](O)[C@@H](O)C2)CN1c1ccc(S(=O)(=O)N2CCN(c3cc(C(F)(F)F)cc(Cl)n3)CC2)cc1 (stereo partly drawn) [Example 48, 1-[4-[4-[6-Chloro-4-(trifluoromethyl)-2-pyridyl]piperazin-1-yl]sulfonylphenyl]-4-[(3S,4R)-3,4-dihydroxypyrrolidin-1-yl]pyrrolidin-2-one]	3.69 (≈ 6.25 µM)	6.78	1.84 (≈ 3.12 µM)
NCC1CN(C2CC(=O)N(c3ccc(S(=O)(=O)N4CCN(c5cc(C(F)(F)F)cc(Cl)n5)CC4)cc3)C2)C1 (stereo not drawn) [Example 49, 4-[3-(Aminomethyl)azetidin-1-yl]-1-[4-[4-[6-chloro-4-(trifluoromethyl)-2-pyridyl]piperazin-1-yl]sulfonylphenyl]pyrrolidin-2-one]	7.74 (≈ 13.5 µM)	82	3.87 (≈ 6.75 µM)
NC1CN(C2CC(=O)N(c3ccc(S(=O)(=O)N4CCN(c5cc(C(F)(F)F)cc(Cl)n5)CC4)cc3)C2)C1 (stereo not drawn) [Example 51, 4-(3-Aminoazetidin-1-yl)-1-[4-[4-[6-chloro-4-(trifluoromethyl)-2-pyridyl]piperazin-1-yl]sulfonylphenyl]pyrrolidin-2-one]	15.1 (≈ 27.1 µM)	53.7	3.78 (≈ 6.76 µM)
O=C1CC(N2CC3(CNC3)C2)CN1c1ccc(S(=O)(=O)N2CCN(c3cc(C(F)(F)F)cc(Cl)n3)CC2)cc1 (stereo not drawn) [Example 52, 1-[4-[4-[6-Chloro-4-(trifluoromethyl)-2-pyridyl]piperazin-1-yl]sulfonylphenyl]-4-(2,6-diazaspiro[3.3]heptan-2-yl)pyrrolidin-2-one]	17.5 (≈ 29.9 µM)	34.2	17.5 (≈ 29.9 µM)
O=C1CC(N2CCN[C@H](CO)C2)CN1c1ccc(S(=O)(=O)N2CCN(c3cc(C(F)(F)F)cc(Cl)n3)CC2)cc1 (stereo partly drawn) [Example 53, 1-[4-[4-[6-Chloro-4-(trifluoromethyl)-2-pyridyl]piperazin-1-yl]sulfonylphenyl]-4-[(3S)-3-(hydroxymethyl)piperazin-1-yl]pyrrolidin-2-one]	3 (≈ 4.97 µM)	6.63	2 (≈ 3.32 µM)
O=C1CC(N2CCN[C@@H](CO)C2)CN1c1ccc(S(=O)(=O)N2CCN(c3cc(C(F)(F)F)cc(Cl)n3)CC2)cc1 (stereo partly drawn) [Example 54, 1-[4-[4-[6-Chloro-4-(trifluoromethyl)-2-pyridyl]piperazin-1-yl]sulfonylphenyl]-4-[(3R)-3-(hydroxymethyl)piperazin-1-yl]pyrrolidin-2-one]	4 (≈ 6.63 µM)	19.9	2 (≈ 3.32 µM)
O=C1CC(N2C[C@@H]3C[C@H]2CN3)CN1c1ccc(S(=O)(=O)N2CCN(c3cc(C(F)(F)F)cc(Cl)n3)CC2)cc1 (stereo partly drawn) [Example 55, 1-[4-[4-[6-Chloro-4-(trifluoromethyl)-2-pyridyl]piperazin-1-yl]sulfonylphenyl]-4-[(1S,4S)-2,5-diazabicyclo[2.2.1]heptan-2-yl]pyrrolidin-2-one]	7.77 (≈ 13.3 µM)	51.3	3.88 (≈ 6.63 µM)
N[C@@H]1CN(C2CC(=O)N(c3ccc(S(=O)(=O)N4CCN(c5cc(C(F)(F)F)cc(Cl)n5)CC4)cc3)C2)C[C@H]1O (stereo partly drawn) [Example 56, 4-[(3R,4R)-3-amino-4-hydroxy-pyrrolidin-1-yl]-1-[4-[4-[6-chloro-4-(trifluoromethyl)-2-pyridyl]piperazin-1-yl]sulfonylphenyl]pyrrolidin-2-one]	3.91 (≈ 6.64 µM)	13.6	1.96 (≈ 3.33 µM)
N[C@@H]1CN(C2CC(=O)N(c3ccc(S(=O)(=O)N4CCN(c5cc(C(F)(F)F)cc(Cl)n5)CC4)cc3)C2)CC[C@H]1O (stereo partly drawn) [Example 57, 4-((3R,4R)-3-amino-4-hydroxypiperidin-1-yl)-1-(4-((4-(6-chloro-4-(trifluoromethyl)pyridin-2-yl)piperazin-1-yl)sulfonyl)phenyl)pyrrolidin-2-one]	2 (≈ 3.32 µM)	34.8	2 (≈ 3.32 µM)
O=C1CC(NC2CNC2)CN1c1ccc(S(=O)(=O)N2CCN(c3cc(C(F)(F)F)cc(Cl)n3)CC2)cc1 (stereo not drawn) [Example 58, 4-(Azetidin-3-ylamino)-1-[4-[4-[6-chloro-4-(trifluoromethyl)-2-pyridyl]piperazin-1-yl]sulfonylphenyl]pyrrolidin-2-one]	14.9 (≈ 26.6 µM)	28.6	7.44 (≈ 13.3 µM)
O=C1CC(NC2CCNC2)CN1c1ccc(S(=O)(=O)N2CCN(c3cc(C(F)(F)F)cc(Cl)n3)CC2)cc1 (stereo not drawn) [Example 59, 1-[4-[4-[6-Chloro-4-(trifluoromethyl)-2-pyridyl]piperazin-1-yl]sulfonylphenyl]-4-(pyrrolidin-3-ylamino)pyrrolidin-2-one]	7.62 (≈ 13.3 µM)	96	3.81 (≈ 6.65 µM)
O=C1CC(NC2CCNCC2)CN1c1ccc(S(=O)(=O)N2CCN(c3cc(C(F)(F)F)cc(Cl)n3)CC2)cc1 (stereo not drawn) [Example 60, 1-[4-[4-[6-Chloro-4-(trifluoromethyl)-2-pyridyl]piperazin-1-yl]sulfonylphenyl]-4-(4-piperidylamino)pyrrolidin-2-one]	3.9 (≈ 6.64 µM)	8.52	1.95 (≈ 3.32 µM)
CC1C(N)CC(=O)N1c1ccc(S(=O)(=O)N2CCN(c3cc(C(F)(F)F)cc(Cl)n3)CC2)cc1 (stereo not drawn) [Example 61, 4-Amino-1-[4-[4-[6-chloro-4-(trifluoromethyl)-2-pyridyl]piperazin-1-yl]sulfonylphenyl]-5-methyl-pyrrolidin-2-one]	6.47 (≈ 12.5 µM)	50.2	6.47 (≈ 12.5 µM)
NCC1CN(c2ccc(S(=O)(=O)N3CCN(c4cc(C(F)(F)F)cc(Cl)n4)CC3)cc2F)C(=O)O1 (stereo not drawn) [Example 63, 5-(Aminomethyl)-3-[4-[4-[6-chloro-4-(trifluoromethyl)-2-pyridyl]piperazin-1-yl]sulfonyl-2-fluoro-phenyl]oxazolidin-2-one]	7.3 (≈ 13.6 µM)	204	1.83 (≈ 3.4 µM)
NCC1CN(c2ccc(S(=O)(=O)N3CCN(c4cc(C(F)(F)F)cc(Cl)n4)CC3)c(F)c2)C(=O)O1 (stereo not drawn) [Example 64, 5-(Aminomethyl)-3-[4-[4-[6-chloro-4-(trifluoromethyl)-2-pyridyl]piperazin-1-yl]sulfonyl-3-fluoro-phenyl]oxazolidin-2-one]	14.6 (≈ 27.1 µM)	264	3.65 (≈ 6.79 µM)
N#CC1CN(c2cc(C(F)(F)F)cc(Cl)n2)CCN1S(=O)(=O)c1ccc(N2CC(N)CC2=O)cc1 (stereo not drawn) [Example 67, 1-[4-(4-Amino-2-oxo-pyrrolidin-1-yl)phenyl]sulfonyl-4-[6-chloro-4-(trifluoromethyl)-2-pyridyl]piperazine-2-carbonitrile]	13.2 (≈ 25 µM)	149	6.61 (≈ 12.5 µM)
NC1CC(=O)N(c2ccc(S(=O)(=O)N3CCN(c4cc(C(F)F)cc(Cl)n4)CC3)cc2)C1 (stereo not drawn) [Example 68, 4-Amino-1-[4-[4-[6-chloro-4-(difluoromethyl)-2-pyridyl]piperazin-1-yl]sulfonylphenyl]pyrrolidin-2-one]	10.3 (≈ 21.3 µM)	259	2.59 (≈ 5.33 µM)
NC1CC(=O)N(c2ccc(S(=O)(=O)N3CCN(c4cc(S(=O)(=O)C5CC5)cc(Cl)n4)CC3)cc2)C1 (stereo not drawn) [Example 69, 4-Amino-1-[4-[4-(6-chloro-4-cyclopropylsulfonyl-2-pyridyl)piperazin-1-yl]sulfonylphenyl]pyrrolidin-2-one]	6.75 (≈ 12.5 µM)	746	13.5 (≈ 25 µM)
NC1CC(=O)N(c2ccc(S(=O)(=O)N3CCN(c4cc(S(=O)(=O)C5CCOCC5)cc(Cl)n4)CC3)cc2)C1 (stereo not drawn) [Example 70, 4-Amino-1-[4-[4-(6-chloro-4-tetrahydropyran-4-ylsulfonyl-2-pyridyl)piperazin-1-yl]sulfonylphenyl]pyrrolidin-2-one]	15.5 (≈ 26.6 µM)	47.9	15.5 (≈ 26.6 µM)
N#CC1(c2cc(Cl)nc(N3CCN(S(=O)(=O)c4ccc(N5CC(N)CC5=O)cc4)CC3)c2)CC1 (stereo not drawn) [Example 71, 1-[2-[4-[4-(4-Amino-2-oxo-pyrrolidin-1-yl)phenyl]sulfonylpiperazin-1-yl]-6-chloro-4-pyridyl]cyclopropanecarbonitrile]	12.5 (≈ 25 µM)	591	12.5 (≈ 25 µM)
NC1CC(=O)N(c2ccc(S(=O)(=O)N3CCN(c4cc(Oc5ccccc5)cc(Cl)n4)CC3)cc2)C1 (stereo not drawn) [Example 72, 4-Amino-1-[4-[4-(6-chloro-4-phenoxy-2-pyridyl)piperazin-1-yl]sulfonylphenyl]pyrrolidin-2-one]	7.06 (≈ 13.4 µM)	407	7.06 (≈ 13.4 µM)
NC1CC(=O)N(c2ccc(S(=O)(=O)N3CCN(c4cc(C(F)(F)c5ccccc5)cc(Cl)n4)CC3)cc2)C1 (stereo not drawn) [Example 73, 4-Amino-1-[4-[4-[6-chloro-4-[difluoro(phenyl)methyl]-2-pyridyl]piperazin-1-yl]sulfonylphenyl]pyrrolidin-2-one]	0.44 (≈ 0.783 µM)	32	0.44 (≈ 0.783 µM)
Cc1cc(C(F)(F)c2ccccc2)nc(N2CCN(S(=O)(=O)c3ccc(N4CC(N)CC4=O)cc3)CC2)n1 (stereo not drawn) [Example 76, 4-Amino-1-[4-[4-[4-[difluoro(phenyl)methyl]-6-methyl-pyrimidin-2-yl]piperazin-1-yl]sulfonylphenyl]pyrrolidin-2-one]	1.03 (≈ 1.9 µM)	27.6	0.51 (≈ 0.94 µM)
